Measurements published in PMC7163368 (British Journal of Clinical Pharmacology, 2020).
“And” between values parts separate entries of the source, which are not always exact repeats. Identical values can stand only once.

Assays:
DPP‐IV = conditions: oral administration of 400 mg; cited from earlier work
[1] = Plasma pharmacokinetics of parenterally administered dutogliptin; format: in vivo, human; conditions: for AUC / AUC(0-inf) / Tmax / k el / half-life / bioavailability: human, plasma

SMILES: O=C(CN[C@@H]1CCNC1)N1CCC[C@H]1B(O)O [dutogliptin]
- Inhibition of DPP‐IV activity (DPP‐IV): approximately 85%
- Peak plasma concentration ([1]; 30 mg i.v. (n = 5), day 0, mean (SD)): 2352 (211) ng/mL
- Peak plasma concentration ([1]; 30 mg s.c. (n = 5), day 0, mean (SD)): 1232 (97) ng/mL
- Peak plasma concentration ([1]; 60 mg s.c. (n = 10), day 0, mean (SD)): 2757 (517) ng/mL
- Peak plasma concentration ([1]; 90 mg s.c. (n = 10), day 0, mean (SD)): 3641 (672) ng/mL
- Peak plasma concentration ([1]; 120 mg s.c. (n = 10), day 0, mean (SD)): 5093 ng/mL and 5093 (873) ng/mL
- Increase in maximal plasma levels ([1]; 120 mg s.c. compared to 500 mg orally administered dutogliptin): > 6 fold
- Maximum plasma concentration ([1]; 120 mg s.c. multiple dose, day 6 (n = 5), SD: 544): 6024 ng/mL
- AUC ([1]; iv, 30 mg): 4080 ng·h/mL
- AUC(0-inf) ([1]; iv, 30 mg): 4090 ng·h/mL
- Tmax ([1]; iv, 30 mg): 0.08 h
- k el ([1]; iv, 30 mg): 5.56e-05 s⁻¹
- half-life ([1]; iv, 30 mg, T1/2, 30 mg i.v. (n = 5), day 0, mean (SD)): 3.68 h
- bioavailability ([1]; sc): ~100%
- AUC ([1]; sc, 30 mg): 4050 ng·h/mL
- AUC(0-inf) ([1]; sc, 30 mg): 4060 ng·h/mL
- Tmax ([1]; sc, 30 mg): 0.7 h
- bioavailability ([1]; sc, 30 mg): 99%
- k el ([1]; sc, 30 mg): 5.83e-05 s⁻¹
- half-life ([1]; sc, 30 mg, T1/2, 30 mg s.c. (n = 5), day 0, mean (SD)): 3.37 h
- AUC ([1]; sc, 60 mg): 9060 ng·h/mL
- AUC(0-inf) ([1]; sc, 60 mg): 9110 ng·h/mL
- Tmax ([1]; sc, 60 mg): 0.85 h
- bioavailability ([1]; sc, 60 mg): 109%
- k el ([1]; sc, 60 mg): 5.56e-05 s⁻¹
- half-life ([1]; sc, 60 mg, T1/2, 60 mg s.c. (n = 10), day 0, mean (SD)): 3.58 h
- AUC ([1]; sc, 90 mg): 12200 ng·h/mL
- AUC(0-inf) ([1]; sc, 90 mg): 12200 ng·h/mL
- Tmax ([1]; sc, 90 mg): 0.85 h
- bioavailability ([1]; sc, 90 mg): 96%
- k el ([1]; sc, 90 mg): 5.56e-05 s⁻¹
- half-life ([1]; sc, 90 mg, T1/2, 90 mg s.c. (n = 10), day 0, mean (SD)): 3.64 h
- AUC ([1]; sc, 120 mg): 17200 ng·h/mL
- AUC(0-inf) ([1]; sc, 120 mg): 17300 ng·h/mL
- Tmax ([1]; sc, 120 mg): 0.9 h
- bioavailability ([1]; sc, 120 mg): 95%
- k el ([1]; sc, 120 mg): 5.83e-05 s⁻¹
- half-life ([1]; sc, 120 mg, T1/2, 120 mg s.c. (n = 10), day 0, mean (SD)): 3.32 h
- half-life ([1]; sc, Half‐life, subcutaneous injection, pooled, SD: 0.46): 3.49 h
- Accumulation of the study drug ([1]; multiple injections at daily intervals): did not lead to the accumulation of the study drug
